This series is described as follows: Serum amikacin after single oral administration by gavage. Type of series: in vivo, male Harlan Sprague Dawley albino rats. Conditions: rat, 20 mg amikacin per rat. The method, then: The lipid-only, 1:1 lipid/polymer and the polymer-only pharmaceutical compositions with amikacin encapsulated therein, or unencapsulated amikacin as a solution at pH 8 was administered orally by gavage to 300 g male Harlan Sprague Dawley albino rats. The number of animals per group was six. The dose was 20 mg per rat and the volume was 2 mL. Serum was collected via venipuncture (saphenous vein) from unanesthetized animals at 15, 45, 90 min., 3, 8, 24, and 48 hours. The specimens were kept at −40° C. until analysis.
The concentration of amikacin in serum was determined using a competitive particle concentration fluorescence immunoassay. Polystyrene beads (Idexx Research Product Division, Memphis, Tenn.) were first coated with anti-amikacin antibody (The Binding Site, San Diego, Calif.). The beads were incubated with a combination of fluorescent-labeled amikacin (The Binding Site) and serum containing amikacin which compete for the anti-amikacin antibody sites on the beads. The amount of fluorescent-labeled amikacin bound to the beads was measured by a fluorescence concentration analyzer (Idexx Research Product Division) which is inversely proportional to the amikacin concentration in serum.

For `NCC[C@H](O)C(=O)N[C@@H]1C[C@H](N)[C@@H](O[C@H]2O[C@H](CN)[C@@H](O)[C@H](O)[C@H]2O)[C@H](O)[C@H]1O[C@H]1O[C@H](CO)[C@@H](O)[C@H](N)[C@H]1O` [unencapsulated amikacin, amikacin], the “peak level of the concentration of amikacin in circulation” value was 1.82 ± 0.73 µg/mL and the “time at which peak circulatory levels were reached” value worked out at 45 min.

(Values after patent publication US6793938B2, “Biodegradable compositions for the controlled release of encapsulated substances” (Skye Pharma, Inc., priority 1998, dated 2004).)
